“Also recorded” adds a separate entry of the source. Where two headings read alike, the source gives them in different places.
Experiments:
CYP1A2 = target: T1, CYP1A2 (Homo sapiens, UniProt P05177); test: CYP1A2 fluorescence-based high throughput inhibition assay; type: in vitro ADME; conditions: graded by inhibition evaluation standards
T1 sequence (P05177 1-516): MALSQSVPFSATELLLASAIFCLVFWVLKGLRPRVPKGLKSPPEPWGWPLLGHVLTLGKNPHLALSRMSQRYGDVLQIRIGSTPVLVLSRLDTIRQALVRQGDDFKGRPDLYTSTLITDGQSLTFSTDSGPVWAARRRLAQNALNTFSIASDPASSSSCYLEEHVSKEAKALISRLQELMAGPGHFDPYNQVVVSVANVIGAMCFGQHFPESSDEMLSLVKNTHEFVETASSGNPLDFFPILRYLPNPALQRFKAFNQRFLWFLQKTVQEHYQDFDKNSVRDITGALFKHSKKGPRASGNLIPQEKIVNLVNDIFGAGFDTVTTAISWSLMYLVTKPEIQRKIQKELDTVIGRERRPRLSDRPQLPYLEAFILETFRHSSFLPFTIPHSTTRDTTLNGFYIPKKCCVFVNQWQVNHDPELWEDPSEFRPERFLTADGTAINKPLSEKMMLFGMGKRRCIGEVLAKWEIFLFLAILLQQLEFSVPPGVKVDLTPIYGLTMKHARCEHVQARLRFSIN

CYP2C19 [1] = target: T2, CYP2C19 (Homo sapiens, UniProt P33261); test: CYP2C19 fluorescence-based high throughput inhibition assay; type: in vitro ADME; conditions: graded by inhibition evaluation standards
T2 sequence (P33261 whole entry): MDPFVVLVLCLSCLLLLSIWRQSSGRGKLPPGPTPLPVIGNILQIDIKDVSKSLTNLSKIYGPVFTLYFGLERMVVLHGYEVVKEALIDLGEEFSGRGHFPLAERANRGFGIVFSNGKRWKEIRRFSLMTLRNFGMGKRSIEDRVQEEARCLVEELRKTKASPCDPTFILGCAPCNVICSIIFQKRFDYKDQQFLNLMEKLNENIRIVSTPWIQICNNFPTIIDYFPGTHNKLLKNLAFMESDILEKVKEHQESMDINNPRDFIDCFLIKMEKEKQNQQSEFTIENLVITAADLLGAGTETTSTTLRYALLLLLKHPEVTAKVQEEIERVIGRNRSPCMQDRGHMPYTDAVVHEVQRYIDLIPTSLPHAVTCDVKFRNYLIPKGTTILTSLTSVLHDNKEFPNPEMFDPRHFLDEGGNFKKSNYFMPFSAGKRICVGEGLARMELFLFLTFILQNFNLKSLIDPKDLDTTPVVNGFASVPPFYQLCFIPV

CYP2D6 [2] = target: T3, CYP2D6 (Homo sapiens, UniProt P10635); test: CYP2D6 fluorescence-based high throughput inhibition assay; type: in vitro ADME; conditions: graded by inhibition evaluation standards
T3 sequence (P10635 whole entry): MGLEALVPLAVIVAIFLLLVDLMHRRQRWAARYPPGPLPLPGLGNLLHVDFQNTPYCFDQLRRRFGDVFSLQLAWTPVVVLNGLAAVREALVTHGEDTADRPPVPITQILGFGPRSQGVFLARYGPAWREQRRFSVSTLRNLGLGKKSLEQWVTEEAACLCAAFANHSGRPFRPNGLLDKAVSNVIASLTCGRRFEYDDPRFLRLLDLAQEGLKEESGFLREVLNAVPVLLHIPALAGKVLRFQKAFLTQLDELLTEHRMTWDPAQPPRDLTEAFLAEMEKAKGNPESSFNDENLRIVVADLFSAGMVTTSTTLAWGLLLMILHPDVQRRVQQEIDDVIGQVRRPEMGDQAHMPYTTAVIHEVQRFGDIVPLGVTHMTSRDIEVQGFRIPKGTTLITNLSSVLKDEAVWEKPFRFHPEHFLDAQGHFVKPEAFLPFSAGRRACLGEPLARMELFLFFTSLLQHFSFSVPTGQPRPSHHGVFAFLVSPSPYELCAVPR

CYP2E1 = CYP2E1 (Homo sapiens, UniProt P05181); test: CYP2E1 inhibition, HPLC-UV assay of 6-hydroxychlorzoxazone formation; type: in vitro ADME; conditions: graded by inhibition evaluation standards
Sequence of CYP2E1 (P05181 whole entry): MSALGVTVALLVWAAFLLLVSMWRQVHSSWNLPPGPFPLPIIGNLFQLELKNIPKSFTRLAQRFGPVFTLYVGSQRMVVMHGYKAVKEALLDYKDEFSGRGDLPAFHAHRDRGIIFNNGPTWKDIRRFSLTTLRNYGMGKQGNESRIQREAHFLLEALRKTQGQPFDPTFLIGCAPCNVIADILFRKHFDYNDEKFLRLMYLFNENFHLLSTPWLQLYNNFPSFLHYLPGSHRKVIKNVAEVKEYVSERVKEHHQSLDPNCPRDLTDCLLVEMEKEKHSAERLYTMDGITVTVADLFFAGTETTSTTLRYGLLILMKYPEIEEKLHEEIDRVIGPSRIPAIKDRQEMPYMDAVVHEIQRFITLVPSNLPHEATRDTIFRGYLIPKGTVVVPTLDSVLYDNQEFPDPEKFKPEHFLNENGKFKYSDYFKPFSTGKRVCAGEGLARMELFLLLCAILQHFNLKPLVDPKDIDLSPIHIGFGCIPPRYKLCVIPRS

CYP3A4 = CYP3A4 (Homo sapiens, UniProt P08684); test: CYP3A4 fluorescence-based high throughput inhibition assay; type: in vitro ADME; conditions: graded by inhibition evaluation standards
Sequence of CYP3A4 (P08684 whole entry): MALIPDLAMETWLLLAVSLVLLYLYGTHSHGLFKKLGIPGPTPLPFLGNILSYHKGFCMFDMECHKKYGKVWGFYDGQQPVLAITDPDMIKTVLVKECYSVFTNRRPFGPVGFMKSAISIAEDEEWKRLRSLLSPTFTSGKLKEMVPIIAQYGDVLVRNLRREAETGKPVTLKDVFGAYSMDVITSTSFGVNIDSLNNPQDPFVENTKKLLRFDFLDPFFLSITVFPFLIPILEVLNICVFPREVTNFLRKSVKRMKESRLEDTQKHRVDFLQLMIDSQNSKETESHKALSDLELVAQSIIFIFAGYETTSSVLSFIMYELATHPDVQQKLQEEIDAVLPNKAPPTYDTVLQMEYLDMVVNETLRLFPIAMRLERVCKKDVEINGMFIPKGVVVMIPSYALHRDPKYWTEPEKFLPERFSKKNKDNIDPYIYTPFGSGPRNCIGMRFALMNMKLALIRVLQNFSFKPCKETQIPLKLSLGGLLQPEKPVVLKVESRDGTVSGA

CYP2C19 [3] = target: T2, CYP2C19; conditions: HLMs; cited from earlier work
CYP2D6 [4] = target: T3, CYP2D6; conditions: HLMs; cited from earlier work
rheumatoid arthritis = conditions: 500 mg daily for 8 weeks, 50 women with rheumatoid arthritis; cited from earlier work
[5] = cited from earlier work
CYP3A2 = conditions: diabetic rats, single dose TQ; cited from earlier work

SMILES | inhibitory effect on CYP1A2 activity (in words) (CYP1A2) | inhibitory effect on CYP2C19 activity (in words) (CYP2C19 [1]) | inhibitory effect on CYP2D6 activity (in words) (CYP2D6 [2]) | inhibitory effect on CYP2E1 activity (in words) (CYP2E1) | inhibitory effect on CYP3A4 activity (in words) (CYP3A4) | inhibition of CYP2C19 (in words) (CYP2C19 [3]) | inhibition of CYP2D6 (in words) (CYP2D6 [4]) | clinical symptoms, disease activity, hs-TNF-α and erythrocyte sedimentation rate (rheumatoid arthritis) | increase in t½ of glibenclamide ([5]; chronic administration of TQ) | increase in AUC of glibenclamide ([5]; diabetic rats, single dose TQ) | increase in t½ of glibenclamide ([5]; diabetic rats, single dose TQ) | hepatic protein expressions of CYP3A2 enzymes (CYP3A2)
O=c1c(O)c(-c2ccc(O)c(O)c2)oc2cc(O)cc(O)c12 [QR, Quercetin] | neither QR nor TQ has any significant inhibitory effect | moderate inhibitory effect; also recorded: moderate inhibitors | strong inhibitory effect | neither QR nor TQ has any significant inhibitory effect | moderate to strong inhibitory effect | potent competitive inhibitor | moderate competitive inhibitor | significant improvements | – | – | – | –
CC1=CC(=O)C(C(C)C)=CC1=O [TQ, Thymoquinone] | neither QR nor TQ has any significant inhibitory effect | moderate inhibitory effect | no inhibitory effect | neither QR nor TQ has any significant inhibitory effect | moderate to strong inhibitory effect | – | – | – | 92% | 32.0% | 17.4% | marked decrease
